Patent publication US5047413A (priority 1987, dated 1991)
In brackets after ≈: the same amount, converted by molar mass. Entries after “also recorded” stand apart in the source; their conditions may differ. Read-outs that look alike come from different tables or passages of the source.

Tests used:
guinea pig ileum = assay: tissue or blood
guinea pig taenia coli = assay: tissue or blood; settings: Cavia porcellus
[1] = M. Blau, U. Retzke, Zbl. Gynakol. 100 (1984); cited from earlier work
urinary bladder = settings: literature, background; cited from earlier work
[2] = tested on: guinea-pig urinary bladder muscle; assay: tissue or blood

CCCOC(C(=O)OC1CCN(C)CC1)(c1ccccc1)c1ccccc1 [propiverine, 1-methyl-4-piperidyl α,α-diphenyl-α-(n-propoxy)acetate]
predominating effect, neurotropic/spasmolytic versus myotropic/spasmolytic (in words) (guinea pig ileum): the undesired myotropic/spasmolytic effect predominates | EC50 (guinea pig ileum; Cavia porcellus, read-out: Neurotropic/spasmolytic activity, Ileum, Carbachol 50 ng/ml): 0.059 mg/L (≈ 0.161 µM) | EC50 (guinea pig taenia coli; read-out: ED50 (myotropic/spasmolytic activity)): 2 mg/L (≈ 5.44 µM) | EC50 (guinea pig taenia coli; read-out: Myotropic/spasmolytic activity, Taenia coli, Barium 200 μg/ml (EC 50)): 12 mg/L (≈ 32.7 µM) | effect on blood pressure (in words) [1]: lowering of the blood pressure | side effects (in words) (urinary bladder): not amenable to general use because of certain side effects | therapeutic utility for the tone of the urinary bladder (in words) (urinary bladder): has shown therapeutic utility; also recorded: insufficiently effective in some patients | myotropic/spasmolytic activity compared with papaverine (in words) [2]: reaches the potency of papaverine | EC50 ([2]; Cavia porcellus, read-out: ED50 (myotropic/spasmolytic activity)): 53 mg/L (≈ 144 µM)
